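Assay format: 96-well plates, 48-hour exposure. GI50 is the concentration that inhibits growth by half.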 Activity calls are given as the source filed them. No stated cut-off is given here; in the data, active = GI50 up to about 1.1 µM and inactive = higher. Where a SMILES comes first, the peptide text is derived from it.
How the values were obtained:
Experiment in all cases: inhibition of tumour cell growth, NCI panel, 48 h
UACC-257 = test system: UACC-257
RPMI-8226 = test system: RPMI-8226
SF-295 = test system: SF-295
OVCAR-5 = test system: OVCAR-5
SK-MEL-2 = test system: SK-MEL-2
DU-145 = test system: DU-145
UO-31 = test system: UO-31
COLO 205 = test system: COLO 205
IGROV-1 = test system: IGROV-1
HT-29 = test system: HT-29
MOLT-4 = test system: MOLT-4
HCT-116 = test system: HCT-116
HL-60 = test system: HL-60
ACHN = test system: ACHN
HCC 2998 = test system: HCC 2998
HOP-92 = test system: HOP-92
Malme-3M = test system: Malme-3M
NCI-H226 = test system: NCI-H226
MDA-N = test system: MDA-N
SR = test system: SR

Measured: GI50

Cc1nnc(N)nc1C/C=C/C(C)Sc1ccc(Cl)cc1 (configuration not stated)
inactive: UACC-257 10.8 µM | RPMI-8226 > 21.7 µM | SF-295 2.77 µM | OVCAR-5 10.9 µM | SK-MEL-2 12.8 µM | DU-145 11.9 µM | UO-31 3.49 µM | COLO 205 19.1 µM | IGROV-1 3.41 µM | HT-29 16 µM | MOLT-4 3.7 µM | HCT-116 5.74 µM | HL-60 3.89 µM | ACHN 7.46 µM | HCC 2998 14.4 µM | HOP-92 11.4 µM | Malme-3M 13.2 µM | NCI-H226 2.04 µM | MDA-N 14.4 µM

C/C(CC(O)(/C=N/O)c1ccccc1)=N/O (configuration not stated)
inactive: UACC-257 > 100 µM | RPMI-8226 > 100 µM | SF-295 > 100 µM | OVCAR-5 > 100 µM | SK-MEL-2 > 100 µM | UO-31 > 100 µM | SR > 100 µM | IGROV-1 > 100 µM | HT-29 > 100 µM | MOLT-4 > 100 µM | HCT-116 > 100 µM | ACHN > 100 µM | HCC 2998 > 100 µM | Malme-3M > 100 µM | NCI-H226 > 100 µM | MDA-N > 100 µM

CC(C)=CC1C(COC(=O)c2ccccc2Cl)C1(C)C (configuration not stated)
inactive: UACC-257 48.9 µM | SF-295 35.5 µM | OVCAR-5 38.3 µM | SK-MEL-2 46.7 µM | DU-145 32.8 µM | UO-31 78.5 µM | SR 42.2 µM | IGROV-1 23.5 µM | HT-29 29.6 µM | MOLT-4 24.3 µM | HCT-116 49.3 µM | HL-60 24.1 µM | ACHN 42.8 µM | HOP-92 28.4 µM | Malme-3M 23 µM | NCI-H226 30.4 µM | MDA-N 29.6 µM

CCCCNC(=S)N/N=C/c1cccc(C)n1
inactive: UACC-257 37.8 µM | RPMI-8226 25.5 µM | SF-295 33.2 µM | OVCAR-5 43.2 µM | DU-145 83.2 µM | UO-31 29 µM | SR 19.5 µM | COLO 205 33.7 µM | IGROV-1 58.3 µM | HT-29 > 10 µM | MOLT-4 10.7 µM | HCT-116 20.7 µM | HL-60 23.2 µM | ACHN 23 µM | HOP-92 24.2 µM | Malme-3M 52.2 µM | NCI-H226 27.8 µM | MDA-N 42.8 µM

CC(=O)NC(CS)C(=O)NC(CO)C(=O)NC(CO)C(=O)NC(Cc1c[nH]c2ccccc12)C(=O)N1CCCC1C(=O)NC(CO)C(=O)NC(Cc1c[nH]c2ccccc12)C(=O)NC(Cc1c[nH]cn1)C(=O)NC(CO)C(=O)NC(Cc1c[nH]c2ccccc12)C(=O)NCC(=O)NCC(=O)NC(CC(=O)O)C(=O)NC(CCC(N)=O)C(=O)NC(CCCCN)C(=O)NC(Cc1ccccc1)C(=O)NC(CCCNC(=N)N)C(=O)NC(CCCCN)C(N)=O (configuration not stated) (Ac-CSSWPSWHSWGGDQKFRK-NH2; configuration not given here)
inactive: UACC-257 > 25 µM | RPMI-8226 > 25 µM | SF-295 > 25 µM | OVCAR-5 > 25 µM | SK-MEL-2 > 25 µM | DU-145 > 25 µM | UO-31 > 25 µM | SR > 25 µM | COLO 205 > 25 µM | IGROV-1 > 25 µM | HT-29 > 25 µM | MOLT-4 > 25 µM | HCT-116 > 25 µM | HL-60 > 25 µM | ACHN > 25 µM | HOP-92 > 25 µM | Malme-3M > 25 µM | NCI-H226 > 25 µM | MDA-N > 25 µM

CC12CCC(=O)C=C1CCC1C2CCC2(C)C(C(=O)Cn3cnc4c(=S)nc[nH]c43)CCC12 (configuration not stated)
inactive: UACC-257 35.6 µM | RPMI-8226 25.5 µM | SF-295 28.2 µM | OVCAR-5 > 100 µM | SK-MEL-2 41.9 µM | DU-145 23.3 µM | UO-31 44.8 µM | SR 27.4 µM | COLO 205 42 µM | IGROV-1 23.6 µM | HT-29 33 µM | MOLT-4 21.6 µM | HCT-116 35.9 µM | HL-60 33.3 µM | ACHN 40 µM | HOP-92 10 µM | Malme-3M 40.5 µM | NCI-H226 41.5 µM | MDA-N 39.2 µM

COc1cc(/C=C2\CCc3cc(OC)c(OC)cc3C2=O)cc(OC)c1
inactive: UACC-257 19.7 µM | RPMI-8226 12.8 µM | SF-295 3.92 µM | OVCAR-5 24.2 µM | SK-MEL-2 5.96 µM | DU-145 9.98 µM | UO-31 20.5 µM | COLO 205 3.28 µM | IGROV-1 7.35 µM | HT-29 3.49 µM | MOLT-4 12.8 µM | HCT-116 3.81 µM | HL-60 3.51 µM | ACHN 30.3 µM | HCC 2998 5.3 µM | HOP-92 24.3 µM | Malme-3M 10 µM | NCI-H226 5.04 µM | MDA-N 1.45 µM

O=C1NC(=S)NC(=O)C1C(c1ccc(O)cc1)C1C(=O)NC(=S)NC1=O.c1ccncc1
inactive: UACC-257 > 100 µM | RPMI-8226 > 100 µM | SF-295 > 100 µM | OVCAR-5 > 100 µM | SK-MEL-2 > 100 µM | DU-145 > 100 µM | UO-31 > 100 µM | COLO 205 > 100 µM | IGROV-1 > 100 µM | HT-29 > 100 µM | MOLT-4 > 100 µM | HCT-116 > 100 µM | HL-60 > 100 µM | ACHN > 100 µM | HOP-92 > 100 µM | Malme-3M > 100 µM | NCI-H226 > 100 µM | MDA-N > 100 µM

Cc1ccc2ccccc2c1CC1S(=O)(=O)OCCOS1(=O)=O
inactive: UACC-257 18.2 µM | RPMI-8226 11.4 µM | SF-295 13.1 µM | OVCAR-5 11.9 µM | SK-MEL-2 16.7 µM | DU-145 11.9 µM | UO-31 14.1 µM | SR 7.64 µM | COLO 205 2.43 µM | HT-29 11.4 µM | MOLT-4 6.28 µM | HCT-116 13.1 µM | HL-60 2.12 µM | ACHN 14.4 µM | HCC 2998 4.15 µM | Malme-3M 11.5 µM | MDA-N 9.48 µM

NNc1nncc2[nH]cnc12
inactive: UACC-257 > 100 µM | RPMI-8226 > 100 µM | SF-295 > 100 µM | OVCAR-5 > 100 µM | SK-MEL-2 > 100 µM | DU-145 > 100 µM | UO-31 > 100 µM | SR > 100 µM | COLO 205 > 100 µM | IGROV-1 > 100 µM | HT-29 > 100 µM | MOLT-4 > 100 µM | HCT-116 > 100 µM | HL-60 35.8 µM | ACHN > 100 µM | NCI-H226 > 100 µM | MDA-N > 100 µM

Cn1c(=O)c2nc(CSCc3ccccc3)[nH]c2n(C)c1=O
inactive: UACC-257 > 100 µM | RPMI-8226 67.6 µM | SF-295 85.7 µM | OVCAR-5 > 100 µM | SK-MEL-2 > 100 µM | DU-145 > 100 µM | UO-31 41.1 µM | SR > 100 µM | COLO 205 > 100 µM | IGROV-1 > 100 µM | HT-29 71.4 µM | MOLT-4 > 100 µM | HCT-116 > 100 µM | ACHN > 100 µM | HOP-92 > 100 µM | Malme-3M > 100 µM | NCI-H226 > 100 µM | MDA-N > 100 µM

Cc1cc2nc3[nH]c4c(Cl)cc(Cl)cc4c3nc2cc1C
inactive: RPMI-8226 > 100 µM | SF-295 > 100 µM | OVCAR-5 > 100 µM | SK-MEL-2 > 100 µM | DU-145 86.3 µM | UO-31 > 100 µM | SR 96.8 µM | COLO 205 > 100 µM | IGROV-1 > 100 µM | HT-29 > 100 µM | MOLT-4 74 µM | HCT-116 > 100 µM | HL-60 > 100 µM | ACHN > 100 µM | HOP-92 > 100 µM | Malme-3M > 100 µM | NCI-H226 > 100 µM | MDA-N > 100 µM

Nc1ccc2c(c1)C(=O)c1c(F)cccc1-2
inactive: UACC-257 > 100 µM | RPMI-8226 20.4 µM | SF-295 46 µM | SK-MEL-2 81.7 µM | DU-145 45 µM | UO-31 20.8 µM | COLO 205 44.3 µM | HT-29 27.7 µM | HCT-116 30.5 µM | ACHN 34.1 µM | HCC 2998 40 µM | HOP-92 15.5 µM | Malme-3M 38.4 µM | NCI-H226 27.7 µM | MDA-N 93.3 µM

Cc1c(Br)c(Br)c(C)[s+]1[O-]
inactive: UACC-257 12.2 µM | RPMI-8226 3.8 µM | SF-295 20 µM | OVCAR-5 18 µM | SK-MEL-2 13.3 µM | UO-31 13.6 µM | SR 3.28 µM | COLO 205 2.57 µM | IGROV-1 26.7 µM | HT-29 15.4 µM | MOLT-4 3.48 µM | HCT-116 6 µM | HL-60 3.2 µM | ACHN 19 µM | HCC 2998 18.4 µM | HOP-92 45.9 µM | Malme-3M 17.3 µM | NCI-H226 28.4 µM | MDA-N 12.6 µM

O=C1c2ccccc2-c2c1c1ccccc1c(=O)n2Cc1ccccc1
inactive: UACC-257 79.4 µM | RPMI-8226 > 100 µM | SF-295 93.1 µM | OVCAR-5 > 100 µM | SK-MEL-2 > 100 µM | DU-145 81.5 µM | UO-31 > 100 µM | SR > 100 µM | COLO 205 > 100 µM | IGROV-1 64.4 µM | HT-29 > 100 µM | MOLT-4 > 100 µM | HCT-116 > 100 µM | HL-60 > 100 µM | HOP-92 63.1 µM | Malme-3M > 100 µM | NCI-H226 > 100 µM | MDA-N > 100 µM

Source: ChEMBL document CHEMBL1201862, “PubChem BioAssay data set” (2004)
